Laboratory results reported in ChEMBL document CHEMBL2390918, “Cinnamides as selective small-molecule inhibitors of a cellular model of breast cancer stem cells” (Bioorg Med Chem Lett, 2013).
The source made the active and inactive calls. The rule behind the calls is not given here.

Experiments:
[1] = Cytotoxicity against human HMLE cells expressing shRNA and GFP at 20 uM after 70 to 74 hrs by Cell Titer Glo assay; format: cell-based
[2] = system: HMLE; assay: Cytotoxicity against human CSC-like HMLE cells expressing shRNA and epithelial cadherin at 20 uM after 70 to 74 hrs by Cell Titer Glo assay; format: functional, cell-based
[3] = Cytotoxicity against human CSC-like HMLE cells expressing shRNA and epithelial cadherin after 70 to 74 hrs by Cell Titer Glo assay; format: functional, cell-based
[4] = Cytotoxicity against human HMLE cells expressing shRNA and GFP after 70 to 74 hrs by Cell Titer Glo assay; format: cell-based
[5] = Selectivity ratio of EC50 for human CSC-like HMLE cells expressing shRNA and epithelial cadherin to EC50 for human HMLE cells expressing shRNA and GFP; format: ADME, cell-based; conditions: read-out: Ratio EC50
[6] = Selectivity ratio of EC50 for human HMLE cells expressing shRNA and GFP to EC50 for human CSC-like HMLE cells expressing shRNA and epithelial cadherin; format: ADME, cell-based; conditions: read-out: Ratio EC50
[7] = species: Rattus norvegicus; conditions: Wistar, 10 uM
[8] = Displacement of [3H]Batrachotoxin from sodium channel site 2 in Wistar rat brain after 60 mins
[9] = Solubility in PBS at 100 uM after 24 hrs at pH 7.4 by UPLC-MS analysis; format: physicochemical
[10] = target: T1, Substance-P receptor (Homo sapiens, UniProt P25103); assay: Displacement of [3H]Substance P from human recombinant substance P receptor expressed in CHO cells at 10 uM after 90 mins relative to control; format: cell-based
T1 sequence (P25103 whole entry): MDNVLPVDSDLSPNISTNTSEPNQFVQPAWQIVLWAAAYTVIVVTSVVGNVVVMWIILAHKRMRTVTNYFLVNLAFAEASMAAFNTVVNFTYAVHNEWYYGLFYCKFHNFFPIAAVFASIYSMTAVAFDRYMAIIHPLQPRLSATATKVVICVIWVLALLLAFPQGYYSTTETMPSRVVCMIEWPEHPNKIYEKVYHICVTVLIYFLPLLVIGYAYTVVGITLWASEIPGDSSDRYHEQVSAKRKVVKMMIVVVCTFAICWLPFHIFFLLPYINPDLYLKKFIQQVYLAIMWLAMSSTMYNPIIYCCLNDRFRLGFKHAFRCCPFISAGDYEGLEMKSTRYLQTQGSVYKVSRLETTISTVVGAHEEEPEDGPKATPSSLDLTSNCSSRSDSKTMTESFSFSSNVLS

[11] = target: T1, Substance-P receptor; assay: Displacement of [3H]Substance P from human recombinant substance P receptor expressed in CHO cells after 90 mins; format: cell-based
[12] = species: Rattus norvegicus; assay: Displacement of [125I]Triiodothyronine from thyroid hormone receptor in Wistar rat liver at 10 uM after 18 hrs relative to control
[13] = target: 5-hydroxytryptamine receptor 2B (Homo sapiens) (UniProt P41595); conditions: CHO-K1, 10 uM
Sequence of 5-hydroxytryptamine receptor 2B (Homo sapiens) (P41595 whole entry): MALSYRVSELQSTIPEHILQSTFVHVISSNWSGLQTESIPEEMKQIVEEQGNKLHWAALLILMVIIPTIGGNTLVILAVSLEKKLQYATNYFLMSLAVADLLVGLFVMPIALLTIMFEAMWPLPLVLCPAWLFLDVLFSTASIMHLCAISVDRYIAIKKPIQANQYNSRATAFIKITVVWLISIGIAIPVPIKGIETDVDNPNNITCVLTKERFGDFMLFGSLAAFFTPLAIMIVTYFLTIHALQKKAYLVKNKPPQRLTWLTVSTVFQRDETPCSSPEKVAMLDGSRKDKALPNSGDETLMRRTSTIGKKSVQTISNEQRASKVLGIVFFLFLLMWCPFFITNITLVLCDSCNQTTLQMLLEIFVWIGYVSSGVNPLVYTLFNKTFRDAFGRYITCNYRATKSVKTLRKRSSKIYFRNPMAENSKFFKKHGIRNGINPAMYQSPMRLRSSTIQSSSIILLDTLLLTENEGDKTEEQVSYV

[14] = species: Rattus norvegicus; assay: Displacement of [3H]GABA from GABA transporter in Wistar rat cerebral cortex at 10 uM after 20 mins relative to control; format: tissue-based
[15] = Displacement of [3H]GABA from GABA transporter in Wistar rat cerebral cortex after 20 mins; format: tissue-based
[16] = species: Rattus norvegicus; assay: Displacement of [3H]Rolipram from rolipram binding site in Wistar rat brain at 10 uM after 60 mins relative to control
[17] = target: Sodium-dependent dopamine transporter (Homo sapiens) (UniProt Q01959); conditions: CHO-K1, 10 uM
Sequence of Sodium-dependent dopamine transporter (Homo sapiens) (Q01959 whole entry): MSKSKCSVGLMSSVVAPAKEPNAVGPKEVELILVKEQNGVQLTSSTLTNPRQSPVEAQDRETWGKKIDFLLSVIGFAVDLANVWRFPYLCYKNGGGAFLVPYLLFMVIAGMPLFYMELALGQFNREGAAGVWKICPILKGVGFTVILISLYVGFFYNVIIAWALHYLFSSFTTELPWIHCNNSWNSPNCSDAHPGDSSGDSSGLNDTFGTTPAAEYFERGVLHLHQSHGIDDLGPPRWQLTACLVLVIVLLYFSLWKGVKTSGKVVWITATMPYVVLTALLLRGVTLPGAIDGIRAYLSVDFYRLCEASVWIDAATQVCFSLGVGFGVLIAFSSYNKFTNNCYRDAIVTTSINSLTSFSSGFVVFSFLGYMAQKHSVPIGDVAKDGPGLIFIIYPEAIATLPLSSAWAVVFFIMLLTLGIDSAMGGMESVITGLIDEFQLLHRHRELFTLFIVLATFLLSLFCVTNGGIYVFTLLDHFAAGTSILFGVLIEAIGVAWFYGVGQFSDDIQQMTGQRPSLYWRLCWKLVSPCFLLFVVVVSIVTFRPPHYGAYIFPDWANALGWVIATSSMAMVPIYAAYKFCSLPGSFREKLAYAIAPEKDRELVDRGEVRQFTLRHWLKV

[18] = target: 5-hydroxytryptamine receptor 1A (Homo sapiens) (UniProt P08908); assay: Displacement of [3H]8-OH-DPAT from human recombinant 5HT1A receptor expressed in CHOK1 cells at 10 uM after 60 mins relative to control; format: cell-based; conditions: CHO-K1
Sequence of 5-hydroxytryptamine receptor 1A (Homo sapiens) (P08908 whole entry): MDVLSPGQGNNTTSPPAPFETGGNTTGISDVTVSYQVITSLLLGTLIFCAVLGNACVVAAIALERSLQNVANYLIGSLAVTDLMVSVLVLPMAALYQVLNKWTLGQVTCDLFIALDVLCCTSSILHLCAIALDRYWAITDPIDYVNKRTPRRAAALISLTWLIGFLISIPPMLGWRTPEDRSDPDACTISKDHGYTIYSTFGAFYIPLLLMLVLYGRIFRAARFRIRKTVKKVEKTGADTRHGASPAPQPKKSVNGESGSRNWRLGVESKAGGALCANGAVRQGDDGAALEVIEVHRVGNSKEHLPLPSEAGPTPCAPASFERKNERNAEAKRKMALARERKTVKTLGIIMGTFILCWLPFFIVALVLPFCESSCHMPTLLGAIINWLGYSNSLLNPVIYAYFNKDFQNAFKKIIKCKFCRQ

[19] = target: 5-hydroxytryptamine receptor 3A (Homo sapiens) (UniProt P46098); conditions: HEK293, 10 uM
Sequence of 5-hydroxytryptamine receptor 3A (Homo sapiens) (P46098 whole entry): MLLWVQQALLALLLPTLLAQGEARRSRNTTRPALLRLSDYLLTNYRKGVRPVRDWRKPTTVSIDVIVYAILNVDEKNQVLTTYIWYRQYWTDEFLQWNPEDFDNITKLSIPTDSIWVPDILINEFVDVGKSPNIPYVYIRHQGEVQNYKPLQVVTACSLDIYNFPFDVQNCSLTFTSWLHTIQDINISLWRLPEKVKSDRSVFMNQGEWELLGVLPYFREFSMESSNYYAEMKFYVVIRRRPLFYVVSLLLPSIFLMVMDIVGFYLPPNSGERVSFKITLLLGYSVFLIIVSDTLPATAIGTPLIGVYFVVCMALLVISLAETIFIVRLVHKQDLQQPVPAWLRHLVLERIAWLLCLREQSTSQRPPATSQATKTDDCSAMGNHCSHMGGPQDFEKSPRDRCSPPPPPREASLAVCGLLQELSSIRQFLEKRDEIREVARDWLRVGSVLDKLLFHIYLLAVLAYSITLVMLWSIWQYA

In the case of `O=C(/C=C/c1ccc(Cl)cc1Cl)NC1=NCCS1`, the Activity [1] is reported as “Non-toxic” and the Activity [2] is reported as “inactive”.

In the case of `COc1cccc(/C=C/C(=O)NC2=NCCS2)c1`, the EC50 [3] is reported as 62.1 µM and the EC50 [4] is reported as 96.2 µM.

For `Cc1ccc(/C=C/C(=O)NC2=NCCS2)cc1`, the EC50 [3] was 16 µM and the Activity [1] was “Non-toxic”.

With `C/C(=C\C(=O)NC1=NCCS1)c1ccc(CC(C)C)cc1` the Activity [1] was “Non-toxic” and the Activity [2] was “inactive”.

With `CC(C)c1ccc(/C=C/C(=O)NC2=NC(=O)CS2)cc1` the selectivity ratio [5] was 2.03, the EC50 [3] was 27 µM and the EC50 [4] was 13.3 µM.

In the case of `CC(C)c1ccc(CCC(=O)NC2=NCCS2)cc1`, the EC50 [3] is reported as 9.91 µM and the Activity [1] is reported as “Non-toxic”.

In the case of `COc1ccccc1/C=C/C(=O)NC1=NCCS1`, the EC50 [4] is reported as 93.3 µM and the Activity [2] is reported as “inactive”.

In the case of `CCNC(=O)/C=C/c1ccc(C(C)C)cc1`, the Activity [1] is reported as “Non-toxic” and the Activity [2] is reported as “inactive”.

With `Cn1c(C(=O)NC2=NCCS2)cc2ccccc21` the Activity [1] was “Non-toxic” and the Activity [2] was “inactive”.

Work on `O=C(/C=C/c1ccc(Cl)cc1)NC1=NCCS1` yielded an EC50 [3] of 13.6 µM, an EC50 [4] of 9.97 µM and a selectivity ratio [6] of 0.73.

`CC(C)c1ccc(/C=C/C(=O)NC2CCCC2)cc1` showed a selectivity ratio [5] of 2.07, an EC50 [3] of 123 µM and an EC50 [4] of 59.6 µM.

Compound `CCCCOc1cc(C(=O)NCCN(CC)CC)c2ccccc2n1` [DIBUCAINE] has an inhibition [7] of 10%, an IC50 [8] of 0.61 µM and a Ki [8] of 0.55 µM.

`CC(C)c1ccc(/C=C/C(=O)Nc2ccccc2)cc1` showed a selectivity ratio [5] of 0.95, an EC50 [3] of 3.28 µM and an EC50 [4] of 3.44 µM.

`CC(C)c1ccc(/C=C/C(=O)NC2=NCCS2)cc1` gave a selectivity ratio [5] of 21.5, an EC50 [3] of 50.6 µM and a solubility at 24 h, 100 µM [9] of less than 1 µM. The EC50 [4] was 2.35 µM.

For `N#Cc1cccc(/C=C/C(=O)NC2=NCCS2)c1`, the Activity [1] was “Non-toxic” and the Activity [2] was “inactive”.

With `Cc1ccccc1/C=C/C(=O)NC1=NCCS1` the Activity [1] was “Non-toxic” and the Activity [2] was “inactive”.

For `O=C(/C=C/c1ccc(Cl)c(Cl)c1)NC1=NCCS1`, the Activity [1] was “Non-toxic” and the Activity [2] was “inactive”.

Compound `CC(C)Cc1ccc(/C=C/C(=O)NC2=NCCS2)cc1` has an EC50 [3] of 0.478 µM, an EC50 [4] of 2.17 µM and a selectivity ratio [6] of 4.54.

In the case of `CC(C)c1ccc(C2CC2C(=O)NC2=NCCS2)cc1` (stereo not given), the Activity [1] is reported as “Non-toxic” and the Activity [2] is reported as “inactive”.

In the case of `COc1ccc(/C=C/C(=O)NC2=NCCS2)c(OC)c1OC`, the Activity [1] is reported as “Non-toxic” and the Activity [2] is reported as “inactive”.

With `COc1ccc(/C=C/C(=O)NC2=NCCS2)cc1OC` the Activity [1] was “Non-toxic” and the Activity [2] was “inactive”.

For `CN(C)c1ccc(/C=C/C(=O)NC2=NCCS2)cc1`, the EC50 [3] was 27.4 µM and the Activity [1] was “Non-toxic”.

For `C/C(=C\C(=O)NC1=NCCS1)c1ccc(C)cc1`, the Activity [1] was “Non-toxic” and the Activity [2] was “inactive”.

In the case of `CC(C)c1ccc(/C=C/C(=O)N(C)C2=NCCS2)cc1`, the EC50 [4] is reported as 21.1 µM and the Activity [2] is reported as “inactive”.

In the case of `CC(C)c1ccc(/C=C/C(=O)Nc2nccn2C)cc1`, the selectivity ratio [5] is reported as 1.28, the EC50 [3] is reported as 5.97 µM and the EC50 [4] is reported as 4.65 µM.

In the case of `O=C(/C=C/c1ccc(-c2ccccc2)cc1)NC1=NCCS1`, the EC50 [3] is reported as 0.65 µM, the EC50 [4] is reported as 34.6 µM and the selectivity ratio [6] is reported as 53.1.

With `N#Cc1ccc(/C=C/C(=O)NC2=NCCS2)cc1` the EC50 [3] was 26.9 µM and the Activity [1] was “Non-toxic”.

`Ic1ccccc1N[C@@H]1C2CCN(CC2)[C@@H]1C(c1ccccc1)c1ccccc1` showed an inhibition [10] of 0%, an IC50 [11] of 0.0036 µM and a Ki [11] of 0.0026 µM.

In the case of `N[C@@H](Cc1cc(I)c(Oc2ccc(O)c(I)c2)c(I)c1)C(=O)O`, the inhibition [12] is reported as 6%.

In the case of `O=C(NC1=NCCS1)c1cc2ccccc2[nH]1`, the Activity [1] is reported as “Non-toxic” and the Activity [2] is reported as “inactive”.

Work on `O=C(/C=C/c1ccc(-c2cccnc2)cc1)NC1=NCCS1` yielded an EC50 [3] of 3.85 µM, an EC50 [4] of 5.65 µM and a selectivity ratio [6] of 1.47.

For `O=C(c1ccc(F)cc1)C1CCN(CCn2c(=O)[nH]c3ccccc3c2=O)CC1`, the inhibition [13] was 42%.

For `COc1ccc(OC)c(/C=C/C(=O)NC2=NCCS2)c1`, the Activity [1] was “Non-toxic” and the Activity [2] was “inactive”.

With `O=C(/C=C/c1ccc(C(F)(F)F)cc1)NC1=NCCS1` the Activity [1] was “Non-toxic” and the Activity [2] was “inactive”.

Work on `CC(C)c1ccc(/C=C/C(=O)Nc2nccs2)cc1` yielded a selectivity ratio [5] of 2.05, an EC50 [3] of 7.26 µM and an EC50 [4] of 3.55 µM.

With `Cc1cccc(/C=C/C(=O)NC2=NCCS2)c1` the Activity [1] was “Non-toxic” and the Activity [2] was “inactive”.

In the case of `O=C(/C=C/c1ccc(F)cc1)NC1=NCCS1`, the Activity [1] is reported as “Non-toxic” and the Activity [2] is reported as “inactive”.

In the case of `O=C(/C=C/c1ccccc1)NC1=NCCS1`, the Activity [1] is reported as “Non-toxic” and the Activity [2] is reported as “inactive”.

Compound `CC(C)c1ccc(/C=C/C(=O)Nc2nncs2)cc1` has a selectivity ratio [5] of 0.73, an EC50 [3] of 9.97 µM and an EC50 [4] of 13.6 µM.

In the case of `CC(C)c1ccc(/C=C(\C#N)C(=O)NC2=NCCS2)cc1`, the Activity [1] is reported as “Non-toxic” and the Activity [2] is reported as “inactive”.

With `O=C(/C=C/c1ccccc1Cl)NC1=NCCS1` the EC50 [3] was 35 µM and the Activity [1] was “Non-toxic”.

`O=C(O)C1=CCCN(CCON=C(c2ccccc2)c2ccccc2)C1` gave an inhibition [14] of -6%, an IC50 [15] of 0.2 µM and a Ki [15] of 0.2 µM.

For `COc1ccc(C2CNC(=O)C2)cc1OC1CCCC1` (stereo not given), the inhibition [16] was 16%.

In the case of `COc1cc(/C=C/C(=O)NC2=NCCS2)cc(OC)c1OC`, the Activity [1] is reported as “Non-toxic” and the Activity [2] is reported as “inactive”.

With `CC(C)c1ccc(/C=C/C(=O)Nc2ncc[nH]2)cc1` the EC50 [4] was 51.6 µM and the Activity [2] was “inactive”.

Work on `Fc1ccc(C(OCCN2CCN(CCCc3ccccc3)CC2)c2ccc(F)cc2)cc1` yielded an inhibition [17] of 5%.

Compound `CN1C[C@H](CNC(=O)OCc2ccccc2)C[C@@H]2c3cccc4c3c(cn4C)C[C@H]21` has an inhibition [18] of -8%.

In the case of `O=C(/C=C/c1cc(Cl)ccc1Cl)NC1=NCCS1`, the Activity [1] is reported as “Non-toxic” and the Activity [2] is reported as “inactive”.

For `CCN(CC)C(=O)/C=C/c1ccc(C(C)C)cc1`, the Activity [1] was “Non-toxic” and the Activity [2] was “inactive”.

For `CN1[C@@H]2CC[C@H]1C[C@@H](OC(=O)c1cc(Cl)cc(Cl)c1)C2`, the inhibition [19] was 3%.

For `COc1cc(OC(C)C)ccc1/C=C/C(=O)NC1=NCCS1`, the Activity [1] was “Non-toxic” and the Activity [2] was “inactive”.

In the case of `CC(C)c1ccc(C#CC(=O)NC2=NCCS2)cc1`, the Activity [1] is reported as “Non-toxic” and the Activity [2] is reported as “inactive”.

For `COc1cc(C(C)C)ccc1/C=C/C(=O)NC1=NCCS1`, the EC50 [3] was 28.4 µM and the Activity [1] was “Non-toxic”.

`O=C(/C=C/c1cccc(Cl)c1)NC1=NCCS1` gave an EC50 [3] of 15 µM, an EC50 [4] of 21.5 µM and a selectivity ratio [6] of 1.44.

With `CC(C)c1ccc(/C=C\C(=O)NC2=NCCS2)cc1` the Activity [1] was “Non-toxic” and the Activity [2] was “inactive”.

In the case of `CC(C)c1ccc(/C=C/C(=O)O)cc1`, the Activity [1] is reported as “Non-toxic” and the Activity [2] is reported as “inactive”.

With `N#Cc1ccccc1/C=C/C(=O)NC1=NCCS1` the Activity [1] was “Non-toxic” and the Activity [2] was “inactive”.

In the case of `COc1ccc(/C=C/C(=O)NC2=NCCS2)c(OC)c1`, the EC50 [3] is reported as 9.91 µM and the Activity [1] is reported as “Non-toxic”.

For `Cc1c(C(=O)NC2=NCCS2)oc2ccccc12`, the Activity [1] was “Non-toxic” and the Activity [2] was “inactive”.

In the case of `CC(C)(C)c1ccc(/C=C/C(=O)NC2=NCCS2)cc1`, the EC50 [4] is reported as 20.6 µM and the Activity [2] is reported as “inactive”.
